Data from the NIST ThermoML archive (doi:10.1021/je900064e).
“And” between values parts separate entries of the source, which are not always exact repeats. Identical values can stand only once.

Legend:
[1] = 101.33 kPa, Liquid; for speed of sound: Sing-around technique in a fixed-path interferometer
[2] = φn = volume fraction of the nth substance listed; details: 101 kPa, Liquid, φ1 = 0.5

CN(CCO)CCO [N-methyldiethanolamine]
[1]
Details | speed of sound [m/s]
288.15 K | 1598.8
293.15 K | 1583.1
298.15 K | 1564.1
303.15 K | 1546
308.15 K | 1531
313.15 K | 1516.1
318.15 K | 1503.2
323.15 K | 1490.4

[1], Vibrating tube method
Details | mass density [kg/m3]
288.15 K | 1044.32
293.15 K | 1040.59
298.15 K | 1036.79
303.15 K | 1033.06
308.15 K | 1029.26
313.15 K | 1025.45
318.15 K | 1021.62
323.15 K | 1018.22

CCO [ethanol] + O
[2]
Details | mass density | speed of sound [m/s]
288.15 K | 930.86 kg/m3 | 1546.7
293.15 K | 927.08 kg/m3 | 1534.1
298.15 K | 923.22 kg/m3 | 1521.1
303.15 K | 919.31 kg/m3 | 1507.9
308.15 K | 915.32 kg/m3 | 1494.5
313.15 K | 911.27 kg/m3 | 1480.9
318.15 K | 908.03 kg/m3 and 907.3 kg/m3 | 1467
323.15 K | 904.32 kg/m3 and 903.71 kg/m3 | 1452.9

OCCN(CCO)CCO [triethanolamine]
[1]
Details | mass density [kg/m3] | speed of sound [m/s]
288.15 K | 1126.19 | 1631.1
293.15 K | 1123.42 | 1623.9
298.15 K | 1120.99 | 1614.5
303.15 K | 1118.21 | 1604.5
308.15 K | 1115.38 | 1595.5
313.15 K | 1112.57 | 1587
318.15 K | 1109.78 | 1578.8
323.15 K | 1106.93 | 1570.6
